Data: article PMC12254416, “The antimethanogenic efficacy and fate of bromoform and its transformation products in rumen fluid” (Scientific Reports, 2025)
“Also recorded” adds a separate entry of the source.

Key:
[1] = Loss to headspace volume estimated from Henry's Law solubility constants; assay type: physicochemical; settings: based on Henry's Law solubility constants, during the incubations
Method: Based on the Henry’s Law solubility constants for bromoform and dibromomethane, loss to the headspace volume during the incubations would have amounted to < 5% of the dissolved pool of either compound and therefore, had minimal influence on estimated loss and turnover rates. In contrast, approximately 40% of any bromomethane produced during the tracing experiments may have been lost to the headspace gas sampling and may have contributed to the lack of evidence of bromomethane production.

[2] = tested on: CH4 production in rumen fluid; assay: CH4 production in in vitro rumen fluid incubations (dose-response and single-dose inhibition); assay type: cell-based, Holstein cattle; settings: for Concentration range of the dose response: CH4 production vs inhibitor concentration, for bromomethane the extent of the range; for Concentration at which the sigmoidal concentration-inhibition relationship occurred: abstract; for Time after addition to reduced CH4 production: bromoform addition, vs control; for CH4 production relative to the no treatment control: concentrations > 2 µmol l^−1; for maximum value of CH4 production (dose-response fit) / minimum value of CH4 production (dose-response fit): cumulative CH4 over 240 min, 80 ml rumen fluid; for maximum value of CH4 production (dose-response fit) / minimum value of CH4 production (dose-response fit) / EC50 / coefficient b of log-logistic dose-response curve: ± standard error; for EC50: cumulative CH4 over 240 min vs initial concentration, read-out: ec-50, 50 % inhibition of CH4 production; for coefficient b of log-logistic dose-response curve: cumulative CH4 production over 240 min vs initial inhibitor concentration
From the text: (§1) Animals used in this study were cared for according to the guidelines of William H. Miner Agricultural Research Institute (Chazy, NY) Animal Care and Use Committee. Rumen fluid was collected by cannulation from four healthy, lactating Holstein cattle maintained on the same diet for five weeks with approval from the William H. Miner Agricultural Research Institute (Chazy, NY) Animal Care and Use Committee and in compliance with SOP#106.
(§2) Donor cow profiles and dietary information can be found in supplemental information (Table S1 and Table S2). Rumen samples were strained through four layers of cheesecloth, placed on ice and shipped overnight to Bigelow Laboratory for Ocean Sciences at weekly intervals for three consecutive weeks. Upon arrival, the four samples were combined under anaerobic conditions. Sub-samples of the rumen fluid blend were flash-frozen in liquid nitrogen and stored at −20 °C for later analysis of initial pH, ammonia (NH3), and volatile fatty acids (VFAs). The rumen fluid blend was kept air-tight, on ice at 4 °C until used for experimental incubations within four days[34],[35].
(§3) This study utilized an in vitro technique of directly incubating rumen fluid for short-term experiments (< 6 h). The in vitro experiments were performed in accordance with guidelines reviewed in Yáñez-Ruiz et al.[36]. In order to investigate the response to and transformation of methanogenesis inhibitors, experiments included combinations of the following treatment groups: (i) biotic control (BC): live rumen fluid containing no inhibitors, (ii) biotic plus inhibitor (B+): live rumen fluid containing an inhibitor, (iii) abiotic control plus inhibitor (AC+): rumen fluid sterilized by autoclave (121 °C, 15 psi for 1 h) and containing an inhibitor. Prior to the incubation experiments, 80 ml aliquots of blended rumen fluid were added to 120 ml glass serum bottles and sealed with PTFE septa under anaerobic conditions (80% nitrogen, 15% carbon dioxide, 5% hydrogen). Experiments consisted of a series of 15 to 18 bottles of the same batch of refrigerated rumen fluid incubated in parallel. To revive the microbial activity at the start of each experiment, the incubation bottles, including the killed controls, were brought to 40 °C in a recirculating water bath within 15 min. The bottles thermally equilibrated for another 30 min before the experiment was initiated. The experiment was initiated after headspace sampling (T0) and the designated treatment was added. The incubation proceeded for ~ 4–6 h at 40 °C.
(§4) Two experimental designs were run: i) compound tracing experiments, to investigate the lifetime and transformation of inhibitors; and ii) dose-response experiments, to determine the sensitivity of methanogenesis to inhibitors (Fig. 1). Dose-response experiments included biotic controls (BC), and a series of nine biotic plus inhibitor treatments (B+) across a range of concentrations (0 to 25 µM) containing the specific inhibitor (bromoform (Sigma-Aldrich 99%), dibromomethane (Sigma-Aldrich 99%), bromomethane (Supelco TraceCERT®), or Asparagopsis taxiformis. The A. taxiformis was collected fresh from a marine site in the subtropical Atlantic (27° 59’ 19”, −15° 22’ 12”) and stored frozen at −20 °C. The sample material contained 0.33 ± 0.02 mg bromoform g^−1 dry weight.
(§5) Tracing experiment treatments included biotic controls (BC), biotic plus inhibitors (B+), and abiotic plus inhibitors (AC+) of a single concentration of the target compound, each in triplicate. Target compounds bromoform, dibromomethane, and bromomethane, were injected through the septa as solutions in methanol (VWR 99.9%). The corresponding levels of methanol, which ranged from 30 to 950 µl, were added to the control treatments, depending on the desired inhibitor concentration. The A. taxiformis was cut into fine pieces, homogenized, pre-weighed into PTFE capsules and placed in the incubation bottles prior to incubation. […]

[3] = Compound tracing incubation in live rumen fluid (biotic plus inhibitor, B+); assay type: in vitro ADME, Holstein cattle; settings: for Rate constant, biological loss: difference between total loss (B+) and abiotic loss (AC+); for ½ life, biological loss: from difference of B+ and AC+ rates; for ½ life, loss (total, biotic incubation) / Rate constant, loss (total, biotic incubation): live rumen fluid B+, 40 °C; for Rate constant, loss (total, biotic incubation): compound added alone
From the text: as §1, §2, §3, §4, §5

[4] = Compound tracing incubation in autoclaved rumen fluid (abiotic control plus inhibitor, AC+); assay type: in vitro ADME, Holstein cattle
From the text: as §1, §2, §3, §4, §5

[5] = set-up: method as in earlier work; settings: incubation times up to 72 h; ref 33 Romero et al.; cited from earlier work
[6] = bromoform-amended live rumen fluid (Exp1)
[7] = bromoform-amended autoclaved rumen fluid (Exp1)

| SMILES | Loss to the headspace volume, share of the dissolved pool / of compound produced [1] | Concentration range of the dose response [2] [µmol/L] | Concentration at which the sigmoidal concentration-inhibition relationship occurred [2] [µM] | CH4 production relative to the no treatment control [2] [%] | maximum value of CH4 production (dose-response fit) [2] [µmol] | minimum value of CH4 production (dose-response fit) [2] [µmol] | EC50 [2] [µM] | coefficient b of log-logistic dose-response curve [2] | Rate constant, biological loss [3] | ½ life, biological loss [3] [min] | ½ life, loss (total, biotic incubation) [3] | Rate constant, loss (total, biotic incubation) [3] | ½ life, abiotic loss ([4]; autoclaved rumen fluid AC+) [min] | also measured |
| --- | --- | --- | --- | --- | --- | --- | --- | --- | --- | --- | --- | --- | --- | --- |
| BrC(Br)Br [bromoform] | < 5% | 1 to 2 | 1 to 2 | < 20 | 681 ± 14 | 98 ± 16 | 1.37 ± 0.03 | 5.98 ± 0.76 | -19.6 ± 1.2 x 10^-3min^-1 | 35 | ~ 26 min | -26.4 ± 1.3 x 10^-3min^-1 | 102 | Inhibition threshold for CH4 production [2]: ~ 1 µmol l^−1; CH4 inhibition vs biotic control ([2]; bromoform 3 µmol l^−1, after 260 min (Exp 4)): 78%; Time after addition to reduced CH4 production [2]: < 60 min; Time after addition to reduced CH4 production ([2]; listed as CHBr3): ≤ 60 min; Inhibition of CH4 production ([2]; total bromoform addition of 3 µmol l^−1, ~300 min (Exp 3)): > 75%; Loss rate in live rumen fluid relative to autoclaved control ([3]; B+ vs AC+): more than 3 fold; ½ life, loss (total, biotic incubation) ([3]; listed as Bromoform): 26 min; Rate constant, abiotic loss ([4]; autoclaved rumen fluid AC+, 40 °C): -6.8 ± 0.3 x 10^-3min^-1 |
| CBr [bromomethane] | approximately 40% |  |  |  | 616 ± 6 | 182 ± 7 | 5.34 ± 0.14 | 3.09 ± 0.24 |  |  |  |  |  | Concentration required to achieve a maximal inhibitory effect ([2]; CH4 production dose response (Exp7)): > 20 µmol/L; EC50 relative to bromoform and dibromomethane ([2]; higher): ~5 fold; Production of bromomethane in incubations ([3]; tracing incubations, limit of detection 8 nmol l^−1): no bromomethane was detected; also recorded: not detected; also recorded: no detectable bromomethane production |
| BrCBr [dibromomethane] | < 5% | 1 to 2 | 1 to 2 | < 20 | 763 ± 16 | 146 ± 8 | 1.36 ± 0.03 | 7.46 ± 0.92 | -0.826 ± 0.113 x 10^-3min^-1 | 839 | 775 min | -0.894 ± 0.091 x 10^-3min^-1 | 10200 | Dibromomethane produced as proportion of the degraded bromoform [5]: 20 to 40%; Peak dibromomethane as % of the highest observed bromoform, biotic ([3]; B + A.tax (Exp 4)): 22.0%; Peak level of dibromomethane after A. taxiformis addition, biotic ([3]; B + A.tax (Exp 4)): 0.076 ± 0.006 µmol/L; Dibromomethane production rate [3, 6]: 0.0353 ± 0.0024 µmol/L/min; Yield of dibromomethane, % of the initial bromoform added [3, 6]: 22.1%; Biotic loss slower than the loss of bromoform ([3]; dibromomethane vs bromoform, biotic): ~30 fold; Dibromomethane as % of the maximum bromoform concentrations, abiotic ([4]; AC + A.tax (Exp 4)): 1.3%; Dibromomethane at the end of the incubation after A. taxiformis addition, abiotic ([4]; AC + A.tax (Exp 4)): 0.030 ± 0.001 µmol/L; Dibromomethane abiotic production rate [4, 7]: 0.0014 ± 0.0001 µmol/L/min; Yield of dibromomethane, % of the initial bromoform added, abiotic [4, 7]: 3.4%; Yield of dibromomethane, % of the initial bromoform added, abiotic ([4]; bromoform-amended autoclaved rumen fluid (Exp1), listed as Dibromomethane): 3.4% |
